Data taken from ChEMBL document CHEMBL1151449, “In vitro activity of DC-159a, a new broad-spectrum fluoroquinolone, compared with that of other agents against drug-susceptible and -resistant pneumococci” (2008).
≈ marks a conversion by molar mass, not a printed value.

Key:
Type in all cases: functional
[1] = test system: Streptococcus pneumoniae; test: Antibacterial activity against Streptococcus pneumoniae HMC 1151 harboring D83N, K137N mutation in quinolone-resistant determining regions of ParC gene and I460V mutation in QRDR of ParE gene showing efflux to ciprofloxacin, gemifloxacin by agar dilution method
[2] = test system: Streptococcus pneumoniae; test: Antibacterial activity against Streptococcus pneumoniae HMC 1146 harboring S81F mutation in quinolone-resistant determining regions of GyrA gene, and D435N mutation in QRDR of ParE gene by agar dilution method
[3] = test system: Streptococcus pneumoniae; test: Antibacterial activity against penicillin-intermediate Streptococcus pneumoniae […] by agar dilution method
[4] = test system: Streptococcus pneumoniae; test: Antibacterial activity against Streptococcus pneumoniae HMC 1073 harboring S81F mutation in quinolone-resistant determining regions of GyrA gene, and I460V mutation in QRDR of ParE gene by agar dilution method
[5] = test system: Streptococcus pneumoniae; test: (§1) Antibacterial activity against penicillin-resistant and quinolone-susceptible Streptococcus pneumoniae HMC 3583 expressing mefA and harboring I460V mutation in QRDR of ParE gene after 41 passages with gemifloxacin measured after 10 daily antibiotic-free subculturing by multi-step resistance selection technique
[6] = test system: Streptococcus pneumoniae; test: Antibacterial activity against Streptococcus pneumoniae HMC 1149 harboring S81F and S79Y mutation in quinolone-resistant determining regions of GyrA and ParC genes respectively showing efflux to ciprofloxacin, gemifloxacin by agar dilution method
[7] = test system: Streptococcus pneumoniae; test: Antibacterial activity against Streptococcus pneumoniae HMC 4026 harboring S81Y mutation in quinolone-resistant determining regions of GyrA gene, S79F, K137N mutation in QRDR of ParC gene and I460V mutation in QRDR of ParE gene by agar dilution method
[8] = test system: Streptococcus pneumoniae; test: Antibacterial activity against penicillin-, macrolide- and quinolone-susceptible Streptococcus pneumoniae HMC 63 after 50 passages by broth microdilution method
[9] = test system: Streptococcus pneumoniae; test: Antibacterial activity against penicillin-, macrolide-susceptible and quinolone-resistant Streptococcus pneumoniae HMC 1074 harboring S81F mutation in quinolone-resistant determining regions of GyrA gene, S79F mutation in QRDR of ParC gene and I460V mutation in QRDR of ParE gene by broth microdilution method
[10] = test system: Streptococcus pneumoniae; test: as §1, with “harboring S81F mutation in quinolone-resistant determining regions of GyrA gene, D83N mutation in QRDR of ParC gene and” for “harboring”, “44” for “41”, “levofloxacin” for “gemifloxacin”
[11] = test system: Streptococcus pneumoniae; test: Antibacterial activity against Streptococcus pneumoniae HMC 1139 harboring S81F mutation in quinolone-resistant determining regions of GyrA gene, S79F, K137N mutation in QRDR of ParC gene and I460V mutation in QRDR of ParE gene by agar dilution method
[12] = test system: Streptococcus pneumoniae; test: Antibacterial activity against Streptococcus pneumoniae HMC 1058 harboring S79F, K137N mutation in quinolone-resistant determining regions of ParC gene and 460V mutation in QRDR of ParE gene by agar dilution method
[13] = test system: Streptococcus pneumoniae; test: Antibacterial activity against penicillin-susceptible, quinolone-resistant Streptococcus pneumoniae HMC 1072 expressing ermB and harboring S81F mutation in quinolone-resistant determining regions of GyrA gene, S79Y mutation in QRDR of ParC gene and I460V mutation in QRDR of ParE gene after 50 passages by broth microdilution method
[14] = test system: Streptococcus pneumoniae; test: Antibacterial activity against macrolide-, quinolone-susceptible and penicillin-intermediate Streptococcus pneumoniae HMC 99 harboring S81Y and S79Y mutation in quinolone-resistant determining regions of GyrA and ParC genes respectively after 41 passages with moxifloxacin measured after 10 daily antibiotic-free subculturing by multi-step resistance selection technique
[15] = test system: Streptococcus pneumoniae; test: Antibacterial activity against penicillin-, macrolide- and quinolone-susceptible Streptococcus pneumoniae HMC 63 by broth microdilution method
[16] = test system: Streptococcus pneumoniae; test: Antibacterial activity against quinolone-resistant Streptococcus pneumoniae […] by agar dilution method
[17] = test system: Streptococcus pneumoniae; test: Antibacterial activity against Streptococcus pneumoniae HMC 1072 harboring S81F mutation in quinolone-resistant determining regions of GyrA gene, S79Y mutation in QRDR of ParC gene and I460V mutation in QRDR of ParE gene by agar dilution method
[18] = test system: Streptococcus pneumoniae; test: Antibacterial activity against Streptococcus pneumoniae HMC 1059 harboring S81F mutation in quinolone-resistant determining regions of GyrA gene, S79F, K137N mutation in QRDR of ParC gene and I460N mutation in QRDR of ParE gene by agar dilution method
[19] = test system: Streptococcus pneumoniae; test: Antibacterial activity against Streptococcus pneumoniae HMC 2527 harboring S81Y mutation in quinolone-resistant determining regions of GyrA gene, S79F, K137N mutation in QRDR of ParC gene and I460V mutation in QRDR of ParE gene by agar dilution method
[20] = test system: Streptococcus pneumoniae; test: Antibacterial activity against Streptococcus pneumoniae HMC 1066 harboring S81F mutation in quinolone-resistant determining regions of GyrA gene, S79F mutation in QRDR of ParC gene and I460V mutation in QRDR of ParE gene by agar dilution method
[21] = test system: Streptococcus pneumoniae; test: Antibacterial activity against Streptococcus pneumoniae HMC 1060 harboring S81F mutation in quinolone-resistant determining regions of GyrA gene, S79F, K137N mutation in QRDR of ParC gene and I460V mutation in QRDR of ParE gene by agar dilution method
[22] = test system: Streptococcus pneumoniae; test: Antibacterial activity against Streptococcus pneumoniae HMC 1541 harboring S81Y mutation in quinolone-resistant determining regions of GyrA gene, S79F, K137N mutation in QRDR of ParC gene and I460V mutation in QRDR of ParE gene by agar dilution method
[23] = test system: Streptococcus pneumoniae; test: Antibacterial activity against penicillin- and quinolone-susceptible Streptococcus pneumoniae HMC 5055 expressing mefA by broth microdilution method
[24] = test system: Streptococcus pneumoniae; test: Antibacterial activity against penicillin-resistant and quinolone-susceptible Streptococcus pneumoniae HMC 3583 expressing mefA by broth microdilution method
[25] = test system: Streptococcus pneumoniae; test: Antibacterial activity against penicillin- and quinolone-susceptible Streptococcus pneumoniae HMC 5055 expressing mefA after 50 passages by broth microdilution method
[26] = test system: Streptococcus pneumoniae; test: Antibacterial activity against penicillin-resistant and quinolone-susceptible Streptococcus pneumoniae HMC 228 expressing ermB by broth microdilution method
[27] = test system: Streptococcus pneumoniae; test: Antibacterial activity against macrolide-, quinolone-susceptible and penicillin-intermediate Streptococcus pneumoniae HMC 100 by broth microdilution method
[28] = test system: Streptococcus pneumoniae; test: Antibacterial activity against quinolone-susceptible and penicillin-intermediate Streptococcus pneumoniae HMC 5048 expressing mefA by broth microdilution method
[29] = test system: Streptococcus pneumoniae; test: Antibacterial activity against Streptococcus pneumoniae HMC 1077 harboring S81Y and S79F mutation in quinolone-resistant determining regions of GyrA and ParC genes respectively by agar dilution method
[30] = test system: Streptococcus pneumoniae; test: as §1, with “228” for “3583”, “ermB” for “mefA”, “harboring S81F mutation in quinolone-resistant determining regions of GyrA gene, S79Y mutation in QRDR of ParC gene and” for “harboring”, “36” for “41”, “moxifloxacin” for “gemifloxacin”
[31] = test system: Streptococcus pneumoniae; test: Antibacterial activity against Streptococcus pneumoniae HMC 1055 harboring S81F mutation in quinolone-resistant determining regions of GyrA gene, S79F, K137N mutation in QRDR of ParC gene and I460V mutation in QRDR of ParE gene by agar dilution method
[32] = test system: Streptococcus pneumoniae; test: Antibacterial activity against Streptococcus pneumoniae HMC 2538 harboring S81Y mutation in quinolone-resistant determining regions of GyrA gene, S79F, K137N mutation in QRDR of ParC gene and I460V mutation in QRDR of ParE gene showing efflux to ciprofloxacin, levofloxacin, gatifloxacin by agar dilution method

Structure (SMILES) | MIC [1] [µg/mL] | MIC [2] [µg/mL] | MIC [4] [µg/mL] | MIC [5] [µg/mL] | MIC [6] [µg/mL] | MIC [7] [µg/mL] | MIC [10] [µg/mL] | MIC [11] [µg/mL] | MIC [12] [µg/mL] | MIC [13] [µg/mL] | MIC [14] [µg/mL] | MIC [15] [µg/mL] | MIC50 [16] [µg/mL] | MIC90 [16] [µg/mL] | MIC [17] [µg/mL] | MIC [18] [µg/mL] | MIC [19] [µg/mL] | MIC [20] [µg/mL] | MIC [21] [µg/mL] | MIC [22] [µg/mL] | also measured
COc1c(N2CC3(CC3)[C@](C)(N)C2)c(F)cc2c(=O)c(C(=O)O)cn([C@@H]3C[C@@H]3F)c12.O | 0.25 | 1 | 1 | 1 | 0.25 | 1 | 1 | 1 | 0.5 | 1 | 1 | 0.12 | 1 | 1 | 1 | 1 | 1 | 0.5 | 0.5 | 0.5 | MIC50 [3]: 0.12 µg/mL; MIC90 [3]: 0.12 µg/mL; MIC [8]: 0.125 µg/mL; MIC [9]: 1 µg/mL; MIC [23]: 0.12 µg/mL; MIC [24]: 0.12 µg/mL; MIC [25]: 0.125 µg/mL; MIC [26]: 0.12 µg/mL; MIC [27]: 0.12 µg/mL; MIC [28]: 0.12 µg/mL; MIC [29]: 1 µg/mL; MIC [30]: 1 µg/mL; MIC [31]: 1 µg/mL; MIC [32]: 1 µg/mL
COc1c(N2CCNC(C)C2)c(F)cc2c(=O)c(C(=O)O)cn(C3CC3)c12 (stereo not given) [GATIFLOXACIN] | 2 (≈ 5.33 µM) | 4 (≈ 10.7 µM) | 4 (≈ 10.7 µM) | 2 (≈ 5.33 µM) | 1 (≈ 2.66 µM) | 16 (≈ 42.6 µM) | 4 (≈ 10.7 µM) | 8 (≈ 21.3 µM) | 2 (≈ 5.33 µM) | 8 (≈ 21.3 µM) | 16 (≈ 42.6 µM) | 0.5 (≈ 1.33 µM) | 8 (≈ 21.3 µM) | 8 (≈ 21.3 µM) | 8 (≈ 21.3 µM) | 8 (≈ 21.3 µM) | 16 (≈ 42.6 µM) | 4 (≈ 10.7 µM) | 4 (≈ 10.7 µM) | 4 (≈ 10.7 µM) | MIC50 [3]: 0.5 µg/mL (≈ 1.33 µM); MIC90 [3]: 0.5 µg/mL (≈ 1.33 µM); MIC [8]: 1 µg/mL (≈ 2.66 µM); MIC [9]: 4 µg/mL (≈ 10.7 µM); MIC [23]: 0.25 µg/mL (≈ 0.666 µM); MIC [24]: 0.25 µg/mL (≈ 0.666 µM); MIC [25]: 0.5 µg/mL (≈ 1.33 µM); MIC [26]: 0.5 µg/mL (≈ 1.33 µM); MIC [27]: 0.5 µg/mL (≈ 1.33 µM); MIC [28]: 0.25 µg/mL (≈ 0.666 µM); MIC [29]: 8 µg/mL (≈ 21.3 µM); MIC [30]: 16 µg/mL (≈ 42.6 µM); MIC [31]: 8 µg/mL (≈ 21.3 µM); MIC [32]: 8 µg/mL (≈ 21.3 µM)
CO/N=C1\CN(c2nc3c(cc2F)c(=O)c(C(=O)O)cn3C2CC2)CC1CN (stereo not given) [GEMIFLOXACIN] | 0.25 (≈ 0.642 µM) | 0.5 (≈ 1.28 µM) | 0.125 (≈ 0.321 µM) | 2 (≈ 5.14 µM) | 0.25 (≈ 0.642 µM) | 0.5 (≈ 1.28 µM) | 0.25 (≈ 0.642 µM) | 0.25 (≈ 0.642 µM) | 0.125 (≈ 0.321 µM) | 1 (≈ 2.57 µM) | 1 (≈ 2.57 µM) | 0.06 (≈ 0.154 µM) | 0.25 (≈ 0.642 µM) | 1 (≈ 2.57 µM) | 0.5 (≈ 1.28 µM) | 0.5 (≈ 1.28 µM) | 0.25 (≈ 0.642 µM) | 0.25 (≈ 0.642 µM) | 0.25 (≈ 0.642 µM) | 0.25 (≈ 0.642 µM) | MIC50 [3]: 0.03 µg/mL (≈ 0.077 µM); MIC90 [3]: 0.06 µg/mL (≈ 0.154 µM); MIC [9]: 0.25 µg/mL (≈ 0.642 µM); MIC [23]: 0.03 µg/mL (≈ 0.077 µM); MIC [24]: 0.03 µg/mL (≈ 0.077 µM); MIC [25]: 0.06 µg/mL (≈ 0.154 µM); MIC [26]: 0.06 µg/mL (≈ 0.154 µM); MIC [27]: 0.06 µg/mL (≈ 0.154 µM); MIC [28]: 0.03 µg/mL (≈ 0.077 µM); MIC [29]: 0.25 µg/mL (≈ 0.642 µM); MIC [30]: 2 µg/mL (≈ 5.14 µM); MIC [31]: 0.5 µg/mL (≈ 1.28 µM); MIC [32]: 0.25 µg/mL (≈ 0.642 µM)
COc1c(N2C[C@@H]3CCCN[C@@H]3C2)c(F)cc2c(=O)c(C(=O)O)cn(C3CC3)c12 [MOXIFLOXACIN] | 0.25 (≈ 0.623 µM) | 2 (≈ 4.98 µM) | 2 (≈ 4.98 µM) | 0.5 (≈ 1.25 µM) | 0.25 (≈ 0.623 µM) | 4 (≈ 9.96 µM) | 4 (≈ 9.96 µM) | 4 (≈ 9.96 µM) | 0.5 (≈ 1.25 µM) | 4 (≈ 9.96 µM) | 4 (≈ 9.96 µM) | 0.25 (≈ 0.623 µM) | 4 (≈ 9.96 µM) | 4 (≈ 9.96 µM) | 4 (≈ 9.96 µM) | 4 (≈ 9.96 µM) | 4 (≈ 9.96 µM) | 2 (≈ 4.98 µM) | 2 (≈ 4.98 µM) | 2 (≈ 4.98 µM) | MIC [8]: 0.25 µg/mL (≈ 0.623 µM); MIC [23]: 0.25 µg/mL (≈ 0.623 µM); MIC [25]: 0.125 µg/mL (≈ 0.311 µM); MIC [26]: 0.12 µg/mL (≈ 0.299 µM); MIC [27]: 0.25 µg/mL (≈ 0.623 µM); MIC [29]: 4 µg/mL (≈ 9.96 µM); MIC [30]: 2 µg/mL (≈ 4.98 µM); MIC [31]: 4 µg/mL (≈ 9.96 µM); MIC [32]: 2 µg/mL (≈ 4.98 µM)
